Experimental data: patent US8334280B2, “Ligands of estrogen receptors α and β, method of their preparation, and pharmaceuticals comprising them” (Ustav Molekularni Genetikv AV CR, V.V.I., priority 2008, dated 2012)

Columns and labels:
Assay type in all cases: cell-based
[1] = system: MCF-7 cells; test: proliferation assay in estrogen-growth-dependent MCF-7 cell line; settings: for proliferation effect on MCF-7 cells: 1 nM concentration
Method: The MCF-7 cell line was derived from a breast adenocarcinoma and, considering its growth dependency on estrogen, it is a valuable tool for evaluation of estrogenic properties of chemical compounds. Since MCF-7 cells express exclusively ERα, the proliferative effect of tested compounds is mediated mainly by this receptor.
MCF-7 cells were cultivated for 6 days in DMEM medium without phenol red containing 8% charcoal treated fetal calf serum and 2 mM glutamine. During this time the cells stopped proliferating and the medium was supplemented with different concentrations of tested compounds in DMSO. The cells were further cultured in the medium described above in the presence of tested compounds, and after 3 days the medium was changed and the tested compounds in DMSO were added to the medium once again. After another 3 days the amount of viable cells was measured using the kit […]-BLUE Cell Viability Assay (Promega) according to the manufacturer's instructions. The fluorescent measurement was carried out on the combined spectrophotometer ENVISION (PerkinElmer), and the results are shown in FIGS. 8 and 9.

[2] = target: T1, human ERβ (Homo sapiens, UniProt Q92731); test: reporter assay (luciferase) in COS-7 cells transfected with human ERβ; settings: for EC50: COS-7 cells, 24 h with compound, luciferase, read-out: EC50 of tested ligands in the reporter assays, ER β; for ligand selectivity for ERβ in the reporter assays: ratio of relative activities of ERα and ERβ, E2 = 1.00
T1 construct: expressed in transfected cells; host or cells: COS-7
Method: (§1) The activity of some of the selected novel ligands of estrogen receptors was determined in reporter assays with the COS-7 cells. The reporter assay has an advantage over a classical determination of the ligand binding affinity for the receptor because in the case of steroid hormone receptors the high affinity of the ligand for the receptor doesn't always result in the equally high potency of activating the transcription via the receptor. The COS-7 cell line provides a significant advantage for this type of experiment, since it doesn't express endogenous ERα or ERβ at significant levels, and therefore it is highly suitable for the reporter assays. In addition, these compounds were also tested in the reporter assays with HEK293 cell-line.
(§2) COS-7 cells were transfected with the expression vector encoding human ERα or ERβ and with the reporter vector containing one estrogen responsive element followed by the minimal thymidine kinase promoter from the herpes simples virus. Luciferase was used as a reporter gene. The cells were seeded in a white 96-well plate after transfection, and were further cultivated in the DMEM medium without phenol red containing 2 mM glutamine, 20 mM Hepes, pH 7.5, 5 μg/ml insulin, 5 μg/ml human transferine, 100 μg/m1 bovine serum albumin (BSA). Serially diluted compounds in DMSO were added to cells 24 hours after transfection, and after the next 24 hours the luciferase activity was measured using the commercial STEADY-GLO Luciferase Assay Kit (Promega) according to the manufacturer's instructions. The luminescence was measured using the combined spectrophotometer ENVISION (PerkinElmer) with 1 s signal integration. […] The ligand selectivity for the given receptor was calculated as a ratio of relative activities of ERα and ERβ for the given ligand.

[3] = target: T2, human ERα (Homo sapiens, UniProt P03372); test: reporter assay (luciferase) in COS-7 cells transfected with human ERα; settings: for EC50: COS-7 cells, 24 h with compound, luciferase, read-out: EC50 of tested ligands in the reporter assays, ER α; for ligand selectivity for ERα in the reporter assays: ratio of relative activities of ERα and ERβ, E2 = 1.00
T2 construct: expressed in transfected cells; host or cells: COS-7
T2 sequence (P03372 1-595): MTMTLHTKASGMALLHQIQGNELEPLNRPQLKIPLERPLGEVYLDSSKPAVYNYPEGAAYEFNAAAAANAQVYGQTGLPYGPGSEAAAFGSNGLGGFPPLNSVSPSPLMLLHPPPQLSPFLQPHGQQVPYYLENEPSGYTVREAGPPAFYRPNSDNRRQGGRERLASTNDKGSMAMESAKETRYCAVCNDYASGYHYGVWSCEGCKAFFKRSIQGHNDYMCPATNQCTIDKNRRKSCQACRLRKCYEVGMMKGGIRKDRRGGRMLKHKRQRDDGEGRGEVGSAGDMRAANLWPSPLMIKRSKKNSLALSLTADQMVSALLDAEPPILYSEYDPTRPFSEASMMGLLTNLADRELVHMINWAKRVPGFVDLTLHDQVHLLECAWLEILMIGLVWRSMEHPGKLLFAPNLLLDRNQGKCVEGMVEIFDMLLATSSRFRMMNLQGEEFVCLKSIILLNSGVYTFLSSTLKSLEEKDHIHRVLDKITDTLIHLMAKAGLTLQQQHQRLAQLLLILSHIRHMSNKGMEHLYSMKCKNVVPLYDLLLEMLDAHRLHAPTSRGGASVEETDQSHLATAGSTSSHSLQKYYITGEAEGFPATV
Method: as §1, §2

T1 sequence (Q92731 whole entry): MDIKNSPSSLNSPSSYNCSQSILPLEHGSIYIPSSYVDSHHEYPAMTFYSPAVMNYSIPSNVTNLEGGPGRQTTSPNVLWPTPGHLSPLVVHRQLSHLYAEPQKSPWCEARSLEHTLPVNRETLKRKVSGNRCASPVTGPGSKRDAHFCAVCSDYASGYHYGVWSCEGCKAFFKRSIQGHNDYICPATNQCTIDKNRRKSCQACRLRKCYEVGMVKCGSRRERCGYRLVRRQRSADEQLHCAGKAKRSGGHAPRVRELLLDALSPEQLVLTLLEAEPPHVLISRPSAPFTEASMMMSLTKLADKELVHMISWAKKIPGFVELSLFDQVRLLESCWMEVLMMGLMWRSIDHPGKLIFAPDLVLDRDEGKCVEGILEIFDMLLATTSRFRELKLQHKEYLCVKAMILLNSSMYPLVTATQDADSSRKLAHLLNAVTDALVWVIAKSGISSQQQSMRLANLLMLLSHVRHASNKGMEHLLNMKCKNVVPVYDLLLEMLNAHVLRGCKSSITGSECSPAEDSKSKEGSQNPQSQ

SMILES | toxic effect on MCF-7 cells ([1]; high concentrations of ligands (1-10 μM)) | EC50 [2] | ligand selectivity for ERβ in the reporter assays [2] | proliferation effect on MCF-7 cells [1] | EC50 [3] | ligand selectivity for ERα in the reporter assays [3] | stimulation of ERα in the reporter assays ([3]; 1 nM)
C[C@]12CC[C@@H]3c4ccc(O)cc4CC[C@H]3[C@@H]1CC[C@@H]2O [Ligand E2, estradiol, reference compound] | toxic effect | – | – | – | – | – | –
CCOC(=O)C1(C(=O)OCC)Cc2ccc([C@]3(O)CC[C@H]4[C@@H]5CCc6cc(O)ccc6[C@H]5CC[C@@]43C)cc2C1 [PN202, 17α[2,2-Bis(ethoxycarbonyl)-1,3-dihydro-2H-inden-5-yl]-estradiol] | – | 19.3 nM | 0.55 | comparable to estradiol | 3.85 nM | 1.83 | –
CCOC(=O)C1(C(C)=O)Cc2ccc([C@]3(O)CC[C@H]4[C@@H]5CCc6cc(O)ccc6[C@H]5CC[C@@]43C)cc2C1 (stereo partly drawn) [PN207, 17α-[2-Acetyl-2-(ethoxycarbonyl)-1,3-dihydro-2H-inden-5-yl]-estradiol] | – | 14.5 nM | – | – | – | – | –
C[C@]12CC[C@@H]3c4ccc(O)cc4CC[C@H]3[C@@H]1CC[C@@]2(O)c1ccc2c(c1)CCC2 [PN214, 17α-(1,3-Dihydro-2H-inden-5-yl)-estradiol] | – | 1.08 nM | – | no activity | 21.1 nM | 0.02 | doesn't stimulate ERα
CC(=O)C1(C(C)=O)Cc2ccc([C@]3(O)CC[C@H]4[C@@H]5CCc6cc(O)ccc6[C@H]5CC[C@@]43C)cc2C1 [PN228, 17α-(2,2-Diacetyl-1,3-dihydro-2H-inden-5-yl)-estradiol] | – | 60.4 nM | 0.86 | – | 19 nM | 1.16 | –
Cc1ccc(S(=O)(=O)N2Cc3ccc([C@]4(O)CC[C@H]5[C@@H]6CCc7cc(O)ccc7[C@H]6CC[C@@]54C)cc3C2)cc1 [PN229, 17α-(1,3-Dihydro-2-tosyl-2H-indol-5-yl)-estradiol] | – | 62.7 nM | – | – | – | – | –
CCOC(=O)C1(C#N)Cc2ccc([C@]3(O)CC[C@H]4[C@@H]5CCc6cc(O)ccc6[C@H]5CC[C@@]43C)cc2C1 (stereo partly drawn) [PN233, 17α-[2-Cyano-2-(ethoxycarbonyl)-1,3-dihydro-2H-inden-5-yl]-estradiol] | – | 12.8 nM | – | – | – | – | –
